Source: ChEMBL document CHEMBL1149610, “Bicyclo[2.2.2]octyl esters of dialkylamino acids as antiprotozoals” (Bioorg Med Chem, 2007)

Tests used:
[1] = system: Trypanosoma brucei rhodesiense; test: Antitrypanosomal activity against Trypanosoma brucei rhodesiense after 72 hrs by microplate assay; format: functional, organism-based
[2] = Selectivity index, ratio of IC50 for rat L6 cells to IC50 for Plasmodium falciparum K1; format: functional
[3] = Selectivity index, ratio of IC50 for rat L6 cells to IC50 for Trypanosoma brucei rhodesiense; format: functional
[4] = system: L6; test: Cytotoxicity against rat L6 cells after 72 hrs by microplate assay; format: cell-based; settings: L6, 72 h
[5] = system: Plasmodium falciparum; test: Antiplasmodial activity against chloroquine, pyrimethamine-resistant Plasmodium falciparum K1 after 48 hrs; format: functional, organism-based; settings: K1, 48 h

Row | Compound | IC50 [1] | Ratio IC50 [2] | Ratio IC50 [3] | IC50 [4] | IC50 [5]
1 | CN(C)C12CC(OC(=O)c3ccc4c(c3)OCO4)C(C(c3ccccc3)C1)C(c1ccccc1)C2 (racemic) | 0.98 µM | 15.65 | 5.43 | 5.32 µM | 0.34 µM
2 | O=C(OC1CC2(N3CCCCC3)CC(c3ccccc3)C1C(c1ccccc1)C2)c1ccc2c(c1)OCO2 (racemic) | 2.51 µM | 23.15 | 5.07 | 12.7 µM | 0.55 µM
3 | CN(C)C12CC(OC(=O)/C=C/c3ccccc3)C(C(c3ccccc3)C1)C(c1ccccc1)C2 (racemic) | 0.83 µM | 5.54 | 4.6 | 3.82 µM | 0.69 µM
4 | O=C(/C=C/c1ccccc1)OC1CC2(N3CCCCC3)CC(c3ccccc3)C1C(c1ccccc1)C2 (racemic) | 1.41 µM | 23.27 | 7.43 | 10.5 µM | 0.45 µM
5 | CN(C)C12CC(OC(=O)CN3CCCC3)C(C(c3ccccc3)C1)C(c1ccccc1)C2 (racemic) |  | 46 | 155.5 |  | 
6 | CN(C)C12CC(OC(=O)C(C)(C)C)C(C(c3ccccc3)C1)C(c1ccccc1)C2 (racemic) | 0.62 µM | 12.05 | 8.16 | 5.06 µM | 0.42 µM
7 | CC(C)(C)C(=O)OC1CC2(N3CCCCC3)CC(c3ccccc3)C1C(c1ccccc1)C2 (racemic) | 2.69 µM | 1.51 | 4.46 | 12 µM | 7.93 µM
8 | CCN(CC)CC(=O)OC1CC2(N(C)C)CC(c3ccccc3)C1C(c1ccccc1)C2 (racemic) |  | 11.08 | 49.41 |  | 
9 | O=C(CN1CCCC1)OC1CC2(N3CCCCC3)CC(c3ccccc3)C1C(c1ccccc1)C2 (racemic) |  | 34.85 | 51.19 |  | 
10 | CN(C)C12CC(OC(=O)CN3CCCCC3)C(C(c3ccccc3)C1)C(c1ccccc1)C2 (racemic) |  | 56.27 | 14.7 |  | 
11 | O=C(CN1CCCCC1)OC1CC2(N3CCCC3)CC(c3ccccc3)C1C(c1ccccc1)C2 (racemic) |  | 38.43 | 38.43 |  | 
12 | CN(C)C12CC(O)C(C(c3ccccc3)C1)C(c1ccccc1)C2 (racemic) |  | <8.53 | 44.92 |  | 
13 | CCN(CC)CC(=O)OC1CC2(N3CCCC3)CC(c3ccccc3)C1C(c1ccccc1)C2 (racemic) |  | 245 | 68.06 |  | 
14 | CCN(CC)CC(=O)OC1CC2(N3CCCCC3)CC(c3ccccc3)C1C(c1ccccc1)C2 (racemic) |  | 95.68 | 42.71 |  | 
15 | O=C(CN1CCCCC1)OC1CC2(N3CCCCC3)CC(c3ccccc3)C1C(c1ccccc1)C2 (racemic) |  | 335.5 | 69.41 |  | 
16 | CC(=O)OC1CC2(N3CCCCC3)CC(c3ccccc3)C1C(c1ccccc1)C2 (racemic) | 9.89 µM |  |  |  | > 11 µM
17 | O=C(OC1CC2(N3CCCC3)CC(c3ccccc3)C1C(c1ccccc1)C2)c1ccc2c(c1)OCO2 (racemic) | 0.82 µM | 14.49 | 6.89 | 5.65 µM | 0.39 µM
18 | O=C(CN1CCCC1)OC1CC2(N3CCCC3)CC(c3ccccc3)C1C(c1ccccc1)C2 (racemic) | 0.23 µM | 61.34 | 186.7 | 42.9 µM | 0.7 µM
19 | CC(C)(C)C(=O)OC1CC2(N3CCCC3)CC(c3ccccc3)C1C(c1ccccc1)C2 (racemic) | 1.38 µM | 7.7 | 5.52 | 7.62 µM | 0.99 µM
20 | CC(=O)OC1CC2(N(C)C)CC(c3ccccc3)C1C(c1ccccc1)C2 (racemic) | 4.75 µM |  |  |  | > 12.5 µM
21 | CC(=O)OC1CC2(N3CCCC3)CC(c3ccccc3)C1C(c1ccccc1)C2 (racemic) | 4.93 µM |  |  |  | > 11.7 µM
22 | O=C(/C=C/c1ccccc1)OC1CC2(N3CCCC3)CC(c3ccccc3)C1C(c1ccccc1)C2 (racemic) | 1.04 µM | 5.56 | 3.37 | 3.5 µM | 0.63 µM
23 | C[C@@H]1CC[C@H]2[C@@H](C)C(=O)O[C@@H]3O[C@@]4(C)CC[C@@H]1[C@]32OO4 [ARTEMISININ] |  |  |  |  | 0.0064 µM
